Assay results published in ChEMBL document CHEMBL4387741, “Optimization of novel reversible Bruton's tyrosine kinase inhibitors identified using Tethering-fragment-based screens” (Bioorg Med Chem, 2019).

Legend:
[1] = target: Mitogen-activated protein kinase 14 (Homo sapiens) (UniProt Q16539); assay: Inhibition of wild-type human full length p38-alpha (M1 to S360 residues) expressed in bacterial expression system at 1 uM by Kinomescan method relative to control
[2] = target: Serine/threonine-protein kinase STK11 (Homo sapiens) (UniProt Q15831); assay: Inhibition of wild-type human full length LKB1 (M1 to Q433 residues) expressed in bacterial expression system at 1 uM by Kinomescan method relative to control
[3] = target: Activin receptor type-2B (Homo sapiens) (UniProt Q13705); assay: Inhibition of wild-type human ACVR2B (H169 to D504 residues) expressed in bacterial expression system at 1 uM by Kinomescan method relative to control
[4] = target: AP2-associated protein kinase 1 (Homo sapiens) (UniProt Q2M2I8); assay: Inhibition of human wild-type AAK1 (G25 to L333 residues) expressed in bacterial expression system at 1 uM by Kinomescan method relative to control
[5] = target: Rho-associated protein kinase 2 (Homo sapiens) (UniProt O75116); assay: Inhibition of wild-type human partial length ROCK2 (M1 to T431 residues) expressed in mammalian expression system at 1 uM by Kinomescan method relative to control
[6] = target: Serine/threonine-protein kinase WNK1 (Homo sapiens) (UniProt Q9H4A3); assay: Inhibition of wild-type human partial length WNK1 (Q194 to A490 residues) expressed in mammalian expression system at 1 uM by Kinomescan method relative to control
[7] = tested on: Tyrosine-protein kinase ABL1 (Homo sapiens), P00519 [T315I]; assay: Inhibition of human phosphorylated ABL1 T315I mutant (S229 to K512 residues) expressed in mammalian expression system at 1 uM by Kinomescan method relative to control
[8] = Plasma clearance in Sprague-Dawley rat at 1 mg/kg, iv relative to hepatic blood flow; format: ADME, organism-based; conditions: in vivo
[9] = target: Mitogen-activated protein kinase kinase kinase kinase 2 (Homo sapiens) (UniProt Q12851); assay: Inhibition of wild-type human partial length MAP4K2 (M1 to G318 residues) expressed in mammalian expression system at 1 uM by Kinomescan method relative to control
[10] = target: Phosphatidylinositol 4-phosphate 5-kinase type-1 alpha (Homo sapiens) (UniProt Q99755); assay: Inhibition of wild-type human full length PIP5K1A (M1 to H562 residues) expressed in bacterial expression system at 1 uM by Kinomescan method relative to control
[11] = target: Serine/threonine-protein kinase Sgk1 (Homo sapiens) (UniProt O00141); assay: Inhibition of wild-type human partial length SGK (I60 to L431 residues) expressed in mammalian expression system at 1 uM by Kinomescan method relative to control
[12] = tested on: Receptor-type tyrosine-protein kinase FLT3 (Homo sapiens), P36888 [UNDEFINED MUTATION]; assay: Inhibition of human partial length FLT3 ITD/D835V double mutant expressed in bacterial expression system at 1 uM by Kinomescan method relative to control
[13] = target: Tyrosine-protein kinase Srms (Homo sapiens) (UniProt Q9H3Y6); assay: Inhibition of wild-type human partial length SRMS (L208 to P488 residues) expressed in mammalian expression system at 10 uM by Kinomescan method relative to control
[14] = target: Phosphatidylinositol 5-phosphate 4-kinase type-2 beta (Homo sapiens) (UniProt P78356); assay: Inhibition of wild-type human full length PIP5K2B (M1 to T416 residues) expressed in bacterial expression system at 10 uM by Kinomescan method relative to control
[15] = target: Serine/threonine-protein kinase Nek4 (Homo sapiens) (UniProt P51957); assay: Inhibition of wild-type human full length NEK4 (M1 to F841 residues) expressed in mammalian expression system at 10 uM by Kinomescan method relative to control
[16] = tested on: Tyrosine-protein kinase ABL1 (Homo sapiens), P00519 [T315I]; assay: Inhibition of human non-phosphorylated ABL1 T315I mutant (S229 to K512 residues) expressed in mammalian expression system at 10 uM by Kinomescan method relative to control
[17] = target: Death-associated protein kinase 1 (Homo sapiens) (UniProt P53355); assay: Inhibition of wild-type human partial length DAPK1 (M1 to F296 residues) expressed in bacterial expression system at 10 uM by Kinomescan method relative to control
[18] = target: CDK4/Cyclin D3 (Homo sapiens) (UniProt P11802+P30281); assay: Inhibition of wild-type human full length CDK4/cyclinD3 (M1 to E303 residues) expressed in mammalian expression system at 10 uM by Kinomescan method relative to control
[19] = target: Homeodomain-interacting protein kinase 2 (Homo sapiens) (UniProt Q9H2X6); assay: Inhibition of wild-type human partial length HIPK2 (M153 to S564 residues) expressed in mammalian expression system at 10 uM by Kinomescan method relative to control
[20] = target: Phosphorylase b kinase gamma catalytic chain, liver/testis isoform (Homo sapiens) (UniProt P15735); assay: Inhibition of wild-type human partial length PHKG2 (M1 to W300 residues) expressed in bacterial expression system at 10 uM by Kinomescan method relative to control
[21] = tested on: Receptor-type tyrosine-protein kinase FLT3 (Homo sapiens), P36888 [N841I]; assay: Inhibition of human partial length FLT3 N841I mutant (V592 to Y969 residues) expressed in bacterial expression system at 10 uM by Kinomescan method relative to control
[22] = target: Vascular endothelial growth factor receptor 3 (Homo sapiens) (UniProt P35916); assay: Inhibition of wild-type human partial length FLT4 (E821 to E1196 residues) expressed in bacterial expression system at 10 uM by Kinomescan method relative to control
[23] = target: Serine/threonine-protein kinase 35 (Homo sapiens) (UniProt Q8TDR2); assay: Inhibition of wild-type human partial length STK35 (G182 to A534 residues) expressed in bacterial expression system at 10 uM by Kinomescan method relative to control
[24] = target: Tyrosine-protein kinase Yes (Homo sapiens) (UniProt P07947); assay: Inhibition of wild-type human partial length YES (T257 to L543 residues) expressed in bacterial expression system at 10 uM by Kinomescan method relative to control
[25] = target: Dual specificity protein kinase CLK2 (Homo sapiens) (UniProt P49760); assay: Inhibition of wild-type human partial length CLK2 (D144 to R498 residues) expressed in bacterial expression system at 10 uM by Kinomescan method relative to control
[26] = target: Serine/threonine-protein kinase PRP4 homolog (Homo sapiens) (UniProt Q13523); assay: Inhibition of wild-type human partial length PRP4 (D657 to I1007 residues) expressed in bacterial expression system at 10 uM by Kinomescan method relative to control
[27] = target: BMP-2-inducible protein kinase (Homo sapiens) (UniProt Q9NSY1); assay: Inhibition of wild-type human partial length BIKE (S34 to N329 residues) expressed in bacterial expression system at 10 uM by Kinomescan method relative to control
BMP-2-inducible protein kinase (Homo sapiens), sequence (Q9NSY1 whole entry, looked up, the tested form may be a part): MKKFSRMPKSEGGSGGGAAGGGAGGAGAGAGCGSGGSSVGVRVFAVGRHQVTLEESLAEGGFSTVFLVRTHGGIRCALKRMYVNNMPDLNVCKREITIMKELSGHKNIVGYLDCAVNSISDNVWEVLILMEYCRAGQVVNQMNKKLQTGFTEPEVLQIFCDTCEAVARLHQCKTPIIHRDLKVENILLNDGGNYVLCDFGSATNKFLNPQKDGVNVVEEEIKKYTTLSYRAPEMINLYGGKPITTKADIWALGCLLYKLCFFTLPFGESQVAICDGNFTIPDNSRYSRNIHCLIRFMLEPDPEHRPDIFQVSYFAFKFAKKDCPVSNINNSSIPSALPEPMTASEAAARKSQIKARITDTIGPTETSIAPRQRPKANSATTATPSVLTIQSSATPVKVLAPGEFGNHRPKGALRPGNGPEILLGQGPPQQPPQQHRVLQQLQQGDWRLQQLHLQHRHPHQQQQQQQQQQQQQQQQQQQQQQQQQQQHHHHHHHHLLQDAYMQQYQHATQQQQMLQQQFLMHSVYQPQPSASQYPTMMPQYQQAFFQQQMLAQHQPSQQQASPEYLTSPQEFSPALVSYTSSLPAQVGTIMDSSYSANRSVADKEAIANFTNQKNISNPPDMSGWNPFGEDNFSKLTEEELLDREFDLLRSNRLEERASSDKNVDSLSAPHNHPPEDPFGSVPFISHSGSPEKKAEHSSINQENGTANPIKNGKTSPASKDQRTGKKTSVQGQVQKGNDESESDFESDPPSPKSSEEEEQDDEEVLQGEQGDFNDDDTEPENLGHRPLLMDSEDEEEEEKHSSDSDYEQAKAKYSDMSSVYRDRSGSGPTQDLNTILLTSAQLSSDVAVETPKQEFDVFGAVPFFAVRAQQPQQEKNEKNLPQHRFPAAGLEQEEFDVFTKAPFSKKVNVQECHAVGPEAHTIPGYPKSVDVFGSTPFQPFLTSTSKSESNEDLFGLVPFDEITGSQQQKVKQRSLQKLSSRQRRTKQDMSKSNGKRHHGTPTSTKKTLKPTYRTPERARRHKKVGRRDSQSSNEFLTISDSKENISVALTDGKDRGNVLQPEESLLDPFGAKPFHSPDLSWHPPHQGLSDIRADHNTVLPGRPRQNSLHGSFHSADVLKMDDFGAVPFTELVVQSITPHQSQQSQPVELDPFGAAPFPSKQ

Homeodomain-interacting protein kinase 2 (Homo sapiens), sequence (Q9H2X6 whole entry, looked up, the tested form may be a part, canonical isoform): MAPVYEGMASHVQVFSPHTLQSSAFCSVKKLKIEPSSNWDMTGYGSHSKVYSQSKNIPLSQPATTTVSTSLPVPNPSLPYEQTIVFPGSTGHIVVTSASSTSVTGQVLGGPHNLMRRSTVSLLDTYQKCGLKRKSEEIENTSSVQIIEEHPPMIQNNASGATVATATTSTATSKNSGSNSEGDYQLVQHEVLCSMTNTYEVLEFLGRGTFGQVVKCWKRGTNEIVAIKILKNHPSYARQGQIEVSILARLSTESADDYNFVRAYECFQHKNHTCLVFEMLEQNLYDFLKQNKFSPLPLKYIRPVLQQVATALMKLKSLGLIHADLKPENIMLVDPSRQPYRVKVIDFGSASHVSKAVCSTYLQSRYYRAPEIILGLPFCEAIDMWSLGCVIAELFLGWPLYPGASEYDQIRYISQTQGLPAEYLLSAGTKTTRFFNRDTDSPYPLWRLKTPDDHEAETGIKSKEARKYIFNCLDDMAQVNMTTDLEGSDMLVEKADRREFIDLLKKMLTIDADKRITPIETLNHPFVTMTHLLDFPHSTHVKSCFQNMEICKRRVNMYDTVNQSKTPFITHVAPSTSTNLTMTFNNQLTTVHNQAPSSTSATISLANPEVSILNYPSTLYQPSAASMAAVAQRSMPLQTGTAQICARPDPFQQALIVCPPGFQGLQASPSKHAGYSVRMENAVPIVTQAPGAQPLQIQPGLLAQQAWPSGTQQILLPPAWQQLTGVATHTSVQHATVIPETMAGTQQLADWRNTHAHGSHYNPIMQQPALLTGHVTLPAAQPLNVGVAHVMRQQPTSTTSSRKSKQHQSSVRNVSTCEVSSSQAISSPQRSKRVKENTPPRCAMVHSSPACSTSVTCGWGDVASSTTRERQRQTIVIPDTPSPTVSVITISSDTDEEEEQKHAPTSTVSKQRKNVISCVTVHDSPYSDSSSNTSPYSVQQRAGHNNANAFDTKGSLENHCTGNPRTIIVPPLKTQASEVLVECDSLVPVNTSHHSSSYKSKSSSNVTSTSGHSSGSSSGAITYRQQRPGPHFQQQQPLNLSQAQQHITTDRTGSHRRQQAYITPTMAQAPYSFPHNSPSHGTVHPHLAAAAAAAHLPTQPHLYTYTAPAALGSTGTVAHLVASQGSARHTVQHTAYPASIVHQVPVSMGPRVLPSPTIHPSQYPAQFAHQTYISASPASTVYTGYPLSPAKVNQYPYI
Tyrosine-protein kinase Yes (Homo sapiens), sequence (P07947 2-543 limits assumed): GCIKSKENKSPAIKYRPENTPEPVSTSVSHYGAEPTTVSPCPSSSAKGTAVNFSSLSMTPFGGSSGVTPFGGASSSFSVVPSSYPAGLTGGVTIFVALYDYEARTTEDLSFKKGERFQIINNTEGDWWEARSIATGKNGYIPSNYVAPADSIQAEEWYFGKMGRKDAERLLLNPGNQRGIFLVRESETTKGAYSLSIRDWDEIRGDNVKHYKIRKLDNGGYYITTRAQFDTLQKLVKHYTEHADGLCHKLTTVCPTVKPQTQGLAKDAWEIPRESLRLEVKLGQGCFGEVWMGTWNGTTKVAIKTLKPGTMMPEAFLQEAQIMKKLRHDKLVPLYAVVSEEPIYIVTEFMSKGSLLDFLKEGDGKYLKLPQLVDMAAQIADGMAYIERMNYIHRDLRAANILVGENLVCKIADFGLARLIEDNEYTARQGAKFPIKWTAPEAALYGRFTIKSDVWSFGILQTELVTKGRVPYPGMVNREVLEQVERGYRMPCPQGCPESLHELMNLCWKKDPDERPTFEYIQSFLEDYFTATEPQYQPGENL
Serine/threonine-protein kinase PRP4 homolog (Homo sapiens), sequence (Q13523 whole entry, the tested form may be a part): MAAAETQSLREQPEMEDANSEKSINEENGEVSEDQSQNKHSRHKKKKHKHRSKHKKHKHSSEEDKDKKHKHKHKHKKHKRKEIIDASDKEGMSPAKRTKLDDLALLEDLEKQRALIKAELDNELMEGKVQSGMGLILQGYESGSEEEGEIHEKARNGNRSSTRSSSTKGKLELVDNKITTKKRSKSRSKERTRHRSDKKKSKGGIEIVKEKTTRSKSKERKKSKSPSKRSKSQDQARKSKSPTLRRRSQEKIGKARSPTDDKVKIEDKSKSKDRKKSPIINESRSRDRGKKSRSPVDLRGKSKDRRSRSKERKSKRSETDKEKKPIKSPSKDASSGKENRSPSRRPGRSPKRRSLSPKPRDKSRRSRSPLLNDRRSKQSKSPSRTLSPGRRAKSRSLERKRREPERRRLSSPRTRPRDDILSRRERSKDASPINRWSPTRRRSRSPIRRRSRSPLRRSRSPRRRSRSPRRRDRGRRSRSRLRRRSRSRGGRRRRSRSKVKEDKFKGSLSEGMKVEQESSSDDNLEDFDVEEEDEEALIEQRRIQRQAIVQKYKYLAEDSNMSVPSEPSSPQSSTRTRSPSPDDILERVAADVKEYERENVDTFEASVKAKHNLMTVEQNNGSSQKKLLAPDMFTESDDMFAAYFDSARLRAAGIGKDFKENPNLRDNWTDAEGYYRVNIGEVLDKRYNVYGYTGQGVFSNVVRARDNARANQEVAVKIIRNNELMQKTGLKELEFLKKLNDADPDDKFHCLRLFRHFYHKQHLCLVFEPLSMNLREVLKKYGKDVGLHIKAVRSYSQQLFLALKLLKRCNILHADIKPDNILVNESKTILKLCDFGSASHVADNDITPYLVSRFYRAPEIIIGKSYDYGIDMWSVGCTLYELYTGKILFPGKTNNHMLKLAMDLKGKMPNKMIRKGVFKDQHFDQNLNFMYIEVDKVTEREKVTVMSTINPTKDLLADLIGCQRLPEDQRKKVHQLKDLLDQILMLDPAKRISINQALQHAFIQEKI
Serine/threonine-protein kinase Sgk1 (Homo sapiens), sequence (O00141 whole entry, the tested form may be a part): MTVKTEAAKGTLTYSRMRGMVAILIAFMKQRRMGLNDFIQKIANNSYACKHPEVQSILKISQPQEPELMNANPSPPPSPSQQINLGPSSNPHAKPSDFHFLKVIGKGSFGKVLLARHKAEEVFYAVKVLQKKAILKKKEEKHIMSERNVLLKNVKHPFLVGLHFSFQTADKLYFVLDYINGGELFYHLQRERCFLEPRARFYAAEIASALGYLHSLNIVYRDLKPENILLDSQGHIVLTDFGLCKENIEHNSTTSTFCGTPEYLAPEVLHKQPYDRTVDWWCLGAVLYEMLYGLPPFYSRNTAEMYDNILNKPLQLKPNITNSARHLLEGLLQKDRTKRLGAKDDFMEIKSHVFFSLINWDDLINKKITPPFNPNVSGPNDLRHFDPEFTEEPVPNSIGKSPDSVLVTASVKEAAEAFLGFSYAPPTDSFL
Dual specificity protein kinase CLK2 (Homo sapiens), sequence (P49760 whole entry, looked up, the tested form may be a part): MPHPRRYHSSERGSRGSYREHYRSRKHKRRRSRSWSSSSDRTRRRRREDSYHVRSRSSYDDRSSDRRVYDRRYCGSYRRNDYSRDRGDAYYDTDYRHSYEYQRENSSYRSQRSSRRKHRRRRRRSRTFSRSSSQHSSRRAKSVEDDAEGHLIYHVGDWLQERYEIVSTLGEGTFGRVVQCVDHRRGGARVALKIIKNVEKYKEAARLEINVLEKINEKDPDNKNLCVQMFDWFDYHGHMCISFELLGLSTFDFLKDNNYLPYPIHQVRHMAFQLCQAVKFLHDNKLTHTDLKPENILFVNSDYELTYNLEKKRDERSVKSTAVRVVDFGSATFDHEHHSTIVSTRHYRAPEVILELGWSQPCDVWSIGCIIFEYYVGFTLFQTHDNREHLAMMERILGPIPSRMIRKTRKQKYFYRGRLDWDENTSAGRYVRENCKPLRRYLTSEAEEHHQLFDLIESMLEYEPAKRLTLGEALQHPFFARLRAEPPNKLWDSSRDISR

SMILES: O=C(Nc1cccc([C@@H]2CN(c3ncnc4[nH]ccc34)CCN2CCO)c1)Nc1c(F)cccc1N1CCCC1
- inhibition [1]: 100%
- inhibition [2]: 87%
- inhibition [3]: 100%
- inhibition [4]: 75%
- inhibition [5]: 67%
- inhibition [6]: 74%
- inhibition [7]: 93%
- CL [8]: 11%
- inhibition [9]: 82%
- inhibition [10]: 76%
- inhibition [11]: 64%
- inhibition [12]: 3.5%

SMILES: O=C(Nc1cccc([C@H]2CCCN(c3ncnc4[nH]ccc34)C2)c1)Nc1ccccc1N1CCCC1
- inhibition [13]: 65%
- inhibition [14]: 4.7%
- inhibition [15]: 87%
- inhibition [16]: 65%
- inhibition [17]: 4%
- inhibition [18]: 100%
- inhibition [19]: 64%
- inhibition [20]: 83%
- inhibition [21]: 12%
- inhibition [22]: 0.55%
- inhibition [23]: 99%
- inhibition [24]: 62%
- inhibition [25]: 53%
- inhibition [26]: 17%
- inhibition [27]: 0%
